The assay deals with P388 leukemia ip, CD2F1 mice, survival T/C. Kind of assay: NCI In Vivo Anticancer Drug Screen. Data for tumor model P388 Leukemia (intraperitoneal) in CD2F1 (CDF1) mice. Conditions: endpoint: median survival time, higher = longer survival. The procedure, abridged: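 Mice carrying the transplanted tumor received test compound or vehicle. Survival was recorded in each group, and the value is the treated-group measurement divided by that of the vehicle-treated control group.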

The mark [1] stands for this setting: dose: 50.0 mg/kg/injection, schedule: Q01DX009 (ip), vehicle: saline with Tween-80.
Setting [2] is: dose: 100.0 mg/kg/injection, schedule: Q01DX009 (ip), vehicle: saline with Tween-80.
Setting [3] is: dose: 200.0 mg/kg/injection, schedule: Q01DX009 (ip), vehicle: saline with Tween-80.
Setting [4] is: dose: 50.0 mg/kg/injection, schedule: Q01DX005 (ip), vehicle: Klucel (hydroxypropylcellulose) (HPC).
The mark [5] stands for this setting: dose: 100.0 mg/kg/injection, schedule: Q01DX005 (ip), vehicle: Klucel (hydroxypropylcellulose) (HPC).
Setting [6] is: dose: 50.0 mg/kg/injection, schedule: Q01DX005 (ip), vehicle: saline.
Setting [7] is: dose: 100.0 mg/kg/injection, schedule: Q01DX005 (ip), vehicle: saline.
Setting [8] is: dose: 50.0 mg/kg/injection, schedule: Q01DX005 (ip), vehicle: saline with Tween-80.
Where [9] appears, read: dose: 100.0 mg/kg/injection, schedule: Q01DX005 (ip), vehicle: saline with Tween-80.
The mark [10] stands for this setting: dose: 200.0 mg/kg/injection, schedule: Q01DX005 (ip), vehicle: saline with Tween-80.

“And” between values parts separate entries of the source, which are not always exact repeats. Equal values may be shown once. Inconclusive results and toxic doses are left out.

With `FC(F)(F)c1cccc(CSCc2c(CSCc3cccc(C(F)(F)F)c3)c(CSCc3cccc(C(F)(F)F)c3)c(CSCc3cccc(C(F)(F)F)c3)c(CSCc3cccc(C(F)(F)F)c3)c2CSCc2cccc(C(F)(F)F)c2)c1`, the T/C is, setting by setting: under setting [1], 104 % of control; under setting [2], 98 % of control; under setting [3], 97 % of control.

In the case of `COc1ccc(C2C(C#N)=C(c3ccccc3)OC(OC)(OC)C2(OC)OC)cc1` (centres undefined), the T/C reads like this: (dose: 60.0 mg/kg/injection, schedule: Q01DX005 (ip), vehicle: Klucel (hydroxypropylcellulose) (HPC)) 102 % of control; (dose: 120.0 mg/kg/injection, schedule: Q01DX005 (ip), vehicle: Klucel (hydroxypropylcellulose) (HPC)) 102 % of control; (dose: 240.0 mg/kg/injection, schedule: Q01DX005 (ip), vehicle: Klucel (hydroxypropylcellulose) (HPC)) 99 % of control.

As for `c1ccc(-c2nn(-c3ccccc3)[n+](-c3ccccc3-c3ccccc3)n2)cc1`, the T/C (dose: 5.0 mg/kg/injection, schedule: Q01DX009 (ip), vehicle: saline) is 109 % of control and 114 % of control; the T/C (dose: 10.0 mg/kg/injection, schedule: Q01DX009 (ip), vehicle: saline) was 120 % of control; the T/C (dose: 20.0 mg/kg/injection, schedule: Q01DX009 (ip), vehicle: saline) is 121 % of control.

As for `CN1CCC(O)(C(=O)c2ccccc2)CC1`, the T/C is 99 % of control and 104 % of control (dose: 100.0 mg/kg/injection, schedule: Q04DX002 (ip), vehicle: saline); 103 % of control (dose: 200.0 mg/kg/injection, schedule: Q04DX002 (ip), vehicle: saline).

For `COc1cc2c(cc1OC)-c1c(oc3c(CCC(C)C)c(O)ccc3c1=O)CO2`, the T/C reads like this: (dose: 6.25 mg/kg/injection, schedule: Q01DX005 (ip), vehicle: Klucel (hydroxypropylcellulose) (HPC)) 99 % of control; (dose: 12.5 mg/kg/injection, schedule: Q01DX005 (ip), vehicle: Klucel (hydroxypropylcellulose) (HPC)) 92 % of control and 94 % of control; (dose: 25.0 mg/kg/injection, schedule: Q01DX005 (ip), vehicle: Klucel (hydroxypropylcellulose) (HPC)) 88 % of control and 94 % of control; under setting [4], 86 % of control; under setting [5], 86 % of control.

Turning to `COc1ccc(CCN(CCC#N)C(=O)C(Cl)Cl)cc1`, the T/C runs as follows: under setting [4], 97 % of control; under setting [5], 97 % of control; (dose: 200.0 mg/kg/injection, schedule: Q01DX005 (ip), vehicle: Klucel (hydroxypropylcellulose) (HPC)) 99 % of control.

For the compound `CCCC(C)(C)c1cc(C(C)C)cc(C(C)(C)CCC)c1O`, the T/C (dose: 12.5 mg/kg/injection, schedule: Q01DX009 (ip), vehicle: other) is 100 % of control; the T/C (dose: 25.0 mg/kg/injection, schedule: Q01DX009 (ip), vehicle: other) is 100 % of control; the T/C (dose: 25.0 mg/kg/injection, schedule: Q01DX009 (ip), vehicle: saline + Tween-80 + alcohol) is 103 % of control; the T/C (dose: 50.0 mg/kg/injection, schedule: Q01DX009 (ip), vehicle: other) is 106 % of control; the T/C (dose: 50.0 mg/kg/injection, schedule: Q01DX009 (ip), vehicle: saline + Tween-80 + alcohol) was 101 % of control; the T/C (dose: 100.0 mg/kg/injection, schedule: Q01DX009 (ip), vehicle: other) is 112 % of control. Besides, the T/C was 100 % of control (dose: 100.0 mg/kg/injection, schedule: Q01DX009 (ip), vehicle: saline + Tween-80 + alcohol) and 113 % of control (dose: 200.0 mg/kg/injection, schedule: Q01DX009 (ip), vehicle: saline + Tween-80 + alcohol).

Take `CCOC(=O)c1cnc2c(C)ccc(C)c2c1Nc1ccc2c(c1)OCO2`: the T/C (dose: 60.0 mg/kg/injection, schedule: Q01DX005 (ip), vehicle: Klucel + Tween-80) was 92 % of control; the T/C (dose: 120.0 mg/kg/injection, schedule: Q01DX005 (ip), vehicle: Klucel + Tween-80) is 90 % of control; the T/C (dose: 240.0 mg/kg/injection, schedule: Q01DX005 (ip), vehicle: Klucel + Tween-80) is 91 % of control.

With `O=C1C2C3C=CC(C2C(=O)N1CCl)C1C2C(=O)N(CCl)C(=O)C2C31` (centres undefined), the T/C was 105 % of control (dose: 6.25 mg/kg/injection, schedule: Q01DX009 (ip), vehicle: saline with Tween-80); 103 % of control (dose: 12.5 mg/kg/injection, schedule: Q01DX009 (ip), vehicle: saline with Tween-80); 103 % of control (dose: 25.0 mg/kg/injection, schedule: Q01DX009 (ip), vehicle: saline with Tween-80); 107 % of control and 114 % of control under setting [1]; 107 % of control and 116 % of control under setting [2]; 115 % of control under setting [3].

In the case of `O=C1NC(=O)C(c2ccccc2)(c2ccccc2)C2CC3c4[nH]c5ccccc5c4CCN3CC12` (centres undefined), the T/C runs as follows: (dose: 25.0 mg/kg/injection, schedule: Q01DX001 (ip), vehicle: saline) 117 % of control; (dose: 50.0 mg/kg/injection, schedule: Q01DX001 (ip), vehicle: saline) 88 % of control; (dose: 100.0 mg/kg/injection, schedule: Q01DX001 (ip), vehicle: saline) 114 % of control and 90 % of control.

Regarding `CC(C)(C#N)NCCCNC(C)(C)C#N`, the T/C was 100 % of control under setting [6]; 97 % of control under setting [7]; 95 % of control (dose: 200.0 mg/kg/injection, schedule: Q01DX005 (ip), vehicle: saline).

With `C=CCC1CCC(=O)NC1=O` (centres undefined), the T/C reads like this: (dose: 50.0 mg/kg/injection, schedule: Q04DX002 (ip), vehicle: saline with Tween-80) 102 % of control; (dose: 100.0 mg/kg/injection, schedule: Q04DX002 (ip), vehicle: saline with Tween-80) 102 % of control; (dose: 200.0 mg/kg/injection, schedule: Q04DX002 (ip), vehicle: saline with Tween-80) 100 % of control; (dose: 400.0 mg/kg/injection, schedule: Q04DX002 (ip), vehicle: saline with Tween-80) 112 % of control.

Take `O=C(NCCCNC(=O)C12CC3CC(CC(C3)C1)C2)C12CC3CC(CC(C3)C1)C2`: the T/C is 98 % of control under setting [8], 92 % of control under setting [9] and 100 % of control under setting [10].

For `Cn1c2ccccc2c(=O)c2cc(NC(=O)CCCCC(=O)Nc3ccc4c(c3)c(=O)c3ccccc3n4C)ccc21`, the T/C was 101 % of control (dose: 60.0 mg/kg/injection, schedule: Q01DX005 (ip), vehicle: saline with Tween-80); 107 % of control (dose: 120.0 mg/kg/injection, schedule: Q01DX005 (ip), vehicle: saline with Tween-80); 101 % of control (dose: 240.0 mg/kg/injection, schedule: Q01DX005 (ip), vehicle: saline with Tween-80).

On to `CC1=C/C(=C\C(=O)N2CCCCC2)N=C(N[N+](=O)[O-])N1`, for which the T/C runs as follows: (dose: 50.0 mg/kg/injection, schedule: Q01DX009 (ip), vehicle: distilled water + Tween-80 + alcohol) 111 % of control; (dose: 100.0 mg/kg/injection, schedule: Q01DX009 (ip), vehicle: distilled water + Tween-80 + alcohol) 115 % of control; (dose: 200.0 mg/kg/injection, schedule: Q01DX009 (ip), vehicle: distilled water + Tween-80 + alcohol) 105 % of control.

For `Cc1ccc(CC2C=CCN2)cc1` (centres undefined), the T/C by setting is: (dose: 100.0 mg/kg/injection, schedule: Q01DX001 (ip), vehicle: distilled water + alcohol) 99 % of control; (dose: 200.0 mg/kg/injection, schedule: Q01DX001 (ip), vehicle: distilled water + alcohol) 100 % of control.

On to `C[O][Sn]([O][Sn]([Cl])([c]1ccccc1)[c]1ccccc1)([c]1ccccc1)[c]1ccccc1`, for which the T/C (dose: 50.0 mg/kg/injection, schedule: Q04DX003 (ip), vehicle: saline) is 177 % of control and the T/C (dose: 100.0 mg/kg/injection, schedule: Q04DX003 (ip), vehicle: suspension in saline) is 106 % of control.

Consider `CCN(CC)CCCNc1cc(OC)cc2nc3ccccc3nc12`, for which the T/C is, setting by setting: (dose: 12.5 mg/kg/injection, schedule: Q01DX005 (ip), vehicle: saline) 104 % of control; (dose: 25.0 mg/kg/injection, schedule: Q01DX005 (ip), vehicle: saline) 104 % of control; under setting [6], 99 % of control and 112 % of control; under setting [7], 114 % of control.

`Cc1nn(C(N)=S)c(C)c1N=Nc1ccc(O)cc1`: the T/C runs as follows: under setting [8], 103 % of control; under setting [9], 103 % of control; under setting [10], 107 % of control.

For `N=Cc1c(O)n(C2CCCCC2)c(=O)n(C2CCCCC2)c1=O`, the T/C is 100 % of control under setting [2]; 95 % of control under setting [3]; 100 % of control (dose: 400.0 mg/kg/injection, schedule: Q01DX009 (ip), vehicle: saline with Tween-80).

The record behind these values is PubChem BioAssay AID330 (DTP/NCI, 2004).
